The values that follow come from US4568693A, “N-Naphthoylglycine derivatives” (Ayerst, McKenna & Harrison, Inc., priority 1981, dated 1986).

Test [1] deals with accumulation of dulcitol in the lenses. The experiment in a line: galactosemic rats, dulcitol accumulation in the lens. The test is classed as in vivo, rat (Sprague-Dawley). The note with it: 4 days, vs untreated galactosemic rats. An excerpt:
The aldose reductase inhibiting property of the compounds of this invention and the utilization of the compounds in preventing, diminishing and alleviating diabetic complications are demonstrable in experiments using galactosemic rats, see Dvornik et al., cited above. Such experiments are exemplified hereinbelow after the listing of the following general comments pertaining to these experiments:
(a) Four or more groups of six male rats, 50-70 g, Sprague-Dawley strain, were used. The first group, the control group, was fed a mixture of laboratory chow (rodent laboratory chow, Purina) and glucose at 20% (w/w %) concentration. The untreated galactosemic group was fed a similar diet in which galactose is substituted for glucose. The third group was fed a diet prepared by mixing a given amount of the test compound with the galactose containing diet. The concentration of galactose in the diet of the treated groups was the same as that for the untreated galactosemic group.
(b) After four days, the animals were killed by decapitation. The eyeballs were removed and punctured with a razor blade; the freed lenses were rolled gently on filter paper and weighed. The sciatic nerves were dissected as completely as possible and weighed. Both tissues were frozen and can be kept up to two weeks before being analyzed for dulcitol.
(c) The polyol determination was performed by a modification of the procedure of M. Kraml and L. Cosyns, Clin. Biochem., 2, 373 (1969). Only two minor reagent changes were made: (a) The rinsing mixture was an aqueous 5% (w/v) trichloroacetic acid solution and (b) the stock solution was prepared by dissolving 25 mg of dulcitol in 100 ml of an aqueous trichloroacetic acid solution. [N.B.: For each experiment the average value found in the tissue from rats fed the glucose diet was subtracted from the individual values found in the corresponding rat tissue to obtain the amount of polyol accumulated].
The figures under L and N represent the percentage decrease of dulcitol accumulation in the tissues of the lens and sciatic nerve, respectively, for treated rats as compared to untreated rats.

In test [2] the target is T1, aldose reductase (Bos taurus, UniProt P16116).
T1 construct: the preparation of the enzyme from bovine lens; from tissue; host or cells: bovine lens
The experiment in a line: in vitro aldose reductase inhibition (modified Hayman and Kinoshita procedure). The test is classed as biochemical, bovine. The note with it: for inhibition at 10 µM: 10^-5 molar, read-out: % Inhibition at Different Molar Concentration (in vitro), 10^-5; for inhibition at 1 µM: 10^-6 molar, read-out: % Inhibition at Different Molar Concentration (in vitro), 10^-6; for inhibition at 0.1 µM: 10^-7 molar, read-out: % Inhibition at Different Molar Concentration (in vitro), 10^-7. The text has this:
In the present case the procedure of Hayman and Kinoshita is modified in that the final chromatography step is omitted in the preparation of the enzyme from bovine lens.

For test [3], the system named is aldose reductase. To be noted: literature; cited from earlier work.

Take `COC(=O)CN(C)C(=S)c1cccc2c(C(F)(F)F)c(OC)ccc12` [Example 23, N-[[5-(trifluoromethyl)-6-methoxy-1-naphthalenyl]thioxomethyl]-N-methylglycine methyl ester]: in test [1] (11 mg/kg/day in diet), the “percentage decrease of dulcitol accumulation, lens (L)” value (from here on “percentage decrease”) is 10%. Moreover, at aldose reductase [2], the inhibition at 10 µM is 9%.
As for `O=C1NC(=O)[C@@]2(CCOc3ccc(F)cc32)N1` [sorbinil, (S)-6-Fluoro-2,3-dihydrospiro(4H-1-benzopyran-4,4'-imidazolidine)-2',5'-dione], in the test with aldose reductase [3], the “inhibition of aldose reductase (result in words)” value is “aldose reductase inhibiting properties”.
Turning to `CN(CC(=O)O)C(=S)c1cccc2c(Cl)cc(Cl)cc12` [Example 46, N-[(5,7-dichloro-1-naphthalenyl)thioxomethyl]-N-methylglycine], the “percentage decrease” value in test [1] (52 mg/kg/day in diet) is given as 29%. In addition, at aldose reductase [2], the inhibition at 10 µM worked out at 88%, the inhibition at 1 µM came to 75% and the inhibition at 0.1 µM is 29%.
For the compound `O=C(O)CN1C(=O)c2cccc3cccc(c23)C1=O` [1,3-Dioxo-1H-benz[de]isoquinoline-2(3H)-acetic acid], the “inhibition of aldose reductase (result in words)” value in the test with aldose reductase [3] is “effective inhibitor of aldose reductase”.
Consider `COc1ccc2c(C(=S)N(C)CC(=O)O)cccc2c1Br` [Example 41, N-[(5-bromo-6-methoxy-1-naphthalenyl)thioxomethyl]-N-methylglycine], for which the “percentage decrease” value in test [1] (162 mg/kg/day in diet) worked out at 34%. For the same compound, at aldose reductase [2], the inhibition at 10 µM was determined as 99%, the inhibition at 1 µM was 91% and the inhibition at 0.1 µM turned out to be 72%.
In the case of `COc1c(Cl)cc(C(=S)N(C)CC(=O)O)c2ccccc12` [Example 45, N-[(3-chloro-4-methoxy-1-naphthalenyl)thioxomethyl]-N-methylglycine], the “percentage decrease” value in test [1] (163 mg/kg/day in diet) amounted to 15%. On aldose reductase [2], the inhibition at 10 µM turned out to be 85%, the inhibition at 1 µM turned out to be 78% and the inhibition at 0.1 µM came to 33%.
For the compound `CN(CC(=O)O)C(=S)c1cccc2c(Br)cccc12` [Example 32, N-[(5-Bromo-1-naphthalenyl)thioxomethyl]-N-methylglycine], in test [1] (62 mg/kg/day in diet), the “percentage decrease” value is 14%. Besides, in test [1] (121 mg/kg/day in diet), the “percentage decrease” value was 20%. The “percentage decrease” value in test [1] (189 mg/kg/day in diet) is recorded as 24%. Besides, at aldose reductase [2], the inhibition at 10 µM came out at 93%, the inhibition at 1 µM was determined as 87% and the inhibition at 0.1 µM was 47%.
Turning to `CN(CC(=O)O)C(=S)c1cccc2c(Cl)cccc12` [Example 40, N-[(5-chloro-1-naphthalenyl)thioxomethyl]-N-methylglycine], the “percentage decrease” value in test [1] (156 mg/kg/day in diet) was determined as 34%. In addition, on aldose reductase [2], the inhibition at 10 µM worked out at 91%, the inhibition at 1 µM came to 83% and the inhibition at 0.1 µM was 40%.
As to `CN(CC(=O)O)C(=S)c1cccc2c(C(F)(F)F)cccc12` [Example 53b, N-[[(5-trifluoromethyl)-1-naphthalenyl]thioxomethyl]-N-methylglycine], the “percentage decrease” value in test [1] (11 mg/kg/day in diet) is given as 2%. Further, on aldose reductase [2], the inhibition at 10 µM is 93%, the inhibition at 1 µM was 84% and the inhibition at 0.1 µM was 33%.
